Test results as given in patent US20040097411A1, “Method of treating left ventricular dysfunction” (Allegheny-Singer Research Institute, priority 2002, published 2004).
Read-outs that look alike come from different tables or passages of the source.

What was measured:
[1] = system: conscious, chronically instrumented dogs; assay: Acute graded infusion, hemodynamic effects in conscious chronically instrumented dogs (normal and advanced dilated cardiomyopathy); format: in vivo, dog
Text: FIGS. 2a-2d show the dose response to rGLP-1 in normal conscious dogs and conscious dogs with advanced DCM compared to the response to the sympathomimetic, dobutamine.
FIG. 1 illustrates characteristic instrumentation of conscious, chronically instrumented dogs studied in the laboratory. Under sterile surgical technique, the animals are instrumented as indicated and allowed to recover fully from their surgery. At the time, they are taught to lie quietly on the experimental table before study. To determine if acute GLP-1 (7-36 amide) infusion is associated with hemodynamic effects in conscious chronically instrumented dogs, graded infusions for ten minutes at doses of 1.25, 2.5, 5, 10 and 20 pmol/kg/min in six normal dogs and in six dogs with advanced dilated cardiomyopathy were studied. The response of the graded infusion to the classic iontopic agent, Dobutamine, (2.5, 5, 7.5, 10 and 15μ/kg/min.) was compared. […] Nikolaidis, L A, Hentosz, T, Doverspike, A, et al., “Catecholamine stimulation is associated with impaired myocardial O2 utilization in heart failure,” Cardiovas. Res., 2002;53:392-404, incorporated by reference herein.

normal dogs = assay: 48 hour continuous intravenous infusion in normal dogs, hemodynamic effect; format: in vivo, dog; settings: 1.5 pmol/kg/min i.v. 48 hour
Experimental: (§1) A 48 hour continuous intravenous infusion of GLP-1 (7-36 amide), (1.5 pmol/kg/min) in five normal dogs to determine the hemodynamic effect of chronic infusion in the absence of dilated cardiomyopathy was conducted. […] FIGS. 3-5 illustrates the effects of GLP-1 (7-36 amide) infusion (1.5 pmol/kg/min) intravenously for 48 hours in 20 conscious, chronically instrumented animals with advanced heart failure. These effects have been compared to similarly instrumented animals with advanced heart failure that received a control saline infusion of equal volume ([…]) illustrate the hemodynamic effects of chronic GLP-1 infusion in advanced DCM. GLP-1 (7-36 amide) infusion was associated with a restoration of left ventricular pressure, improvement in contractility, improvement in cardiac output, and reduction in heart rate and LVEDP. […] GLP-1 was associated with restoration of endothelial dependent vaso dilatation response to acetylcholine (FIG. 7). […] GLP-1 had […] increased plasma insulin levels in the setting of euglycemia.

[2] = system: conscious dogs with advanced DCM; assay: 48 hour intravenous infusion in conscious dogs with advanced heart failure (DCM): hemodynamics, sympathetic activity, coronary vasodilation; format: in vivo, dog
Text: FIGS. 3a-3d show the effects of r GLP-1 on LV systolic pressure, LV end diastolic pressure, LV dP/dt, and heart rate in conscious dogs with advanced DCM compared to saline control.
FIGS. 4a-4d show the effects of rGLP-1 on cardiac output, stroke volume, LV ejection fraction, systemic vascular resistance in conscious dogs with advanced DCM compared to saline control.
FIGS. 5a and 5b show the effects of rGLP-1 on stroke work and LV external efficiency in conscious dogs with advanced DCM compared to saline control.
FIGS. 6a and 6b show the effects of rGLP-1 on transmyocardial norepinephrine uptake as a reflection of sympathetic drive to the myocardium in conscious dogs with advanced DCM compared to saline controls.
FIGS. 7a and 7b show the effects of rGLP-1 on endothelial dependent coronary vasodilation in conscious dogs. Advanced DCM was associated with impaired coronary flow responses to acetylcholine. These responses were restored following 48-hour infusion of rGLP-1. The response to the non-endothelial dependent vasodilator, nitroglycerine was unaffected.
as §1

[3] = system: conscious dogs with advanced DCM; assay: Myocardial substrate uptake and metabolic parameters in dogs with advanced DCM (Table 1); format: in vivo, dog; settings: for Glucose myocardial uptake / Lactate myocardial uptake / NE (transmyocardial norepinephrine uptake) / NEFA myocardial uptake / Insulin/Glucagon: GLP-1 group; for Insulin/Glucagon: insulin pmol/L to glucagon pg/ml
Experimental: as §1

[4] = system: adults presenting with severe acute myocardial infarction; assay: 72 hour continuous intravenous infusion in adults with severe acute myocardial infarction; format: in vivo, human
Experimental: The effects of continuous intravenous infusion of GLP-1 (1.5 pmol/kg/min) intravenously for 72 hours was studied in ten adults presenting with severe acute myocardial infarction. These were compared to eleven adults with similar large myocardial infarction (LVEF<35%) all of whom underwent percutaneous coronary intervention and subsequently were treated for 72 hours thereafter.

[5] = cited from earlier work; for plasma insulin levels: hyperglycemia (10.4 mmol/l, 187 mg/dl), GIP 2.0, GLP-1 1.5 pmol·kg−1·min−1; for insulinotropic action: normal subjects during euglycemia
rat cardiomyocytes = settings: in vitro; cited from earlier work
restrained rats = settings: rat, in vivo, sc; cited from earlier work
[6] = when GIP is administered; cited from earlier work
[7] = graded infusions for ten minutes, 1.25-20 pmol/kg/min, normal dogs and dogs with advanced dilated cardiomyopathy
[8] = 1.5 pmol/kg/min i.v. 48 hours, advanced heart failure, vs saline
[9] = 48-hour infusion, advanced DCM, FIG. 7
[10] = Baseline (before CHF and infusion)
[11] = advanced DCM, vs saline controls
[12] = hyperglycemia-only control ~280

CC(CCc1ccc(O)cc1)NCCc1ccc(O)c(O)c1 (stereo not drawn) [Dobutamine, reference compound]
hemodynamic effects of graded infusion ([1]; dogs in heart failure): de-sensitized effects | hemodynamic effects of graded infusion ([1]; normal dogs): predictable effects

GLP-1 (7-36 amide)
cardiac output [1, 7]: no significant, dose related effects | heart rate [1, 7]: no significant, dose related effects | left ventricular dP/dt [1, 7]: no significant, dose related effects | left ventricular pressure [1, 7]: no significant, dose related effects | acute hemodynamic effects (dose response) ([1]; normal conscious dogs and conscious dogs with advanced DCM, FIGS. 2a-2d): no acute hemodynamic effects | hemodynamic effects of chronic infusion (normal dogs): no significant hemodynamic effects | LVEDP [2, 8]: reduction | cardiac output [2, 8]: improvement | contractility [2, 8]: improvement | heart rate [2, 8]: reduction | left ventricular pressure [2, 8]: restoration | endothelial dependent vasodilatation (coronary flow) response to acetylcholine [2, 9]: restoration | response to the non-endothelial dependent vasodilator nitroglycerine [2, 9]: unaffected | endothelial dependent vasodilatation (coronary flow) response to acetylcholine ([2]; 48-hour infusion, advanced DCM, FIG. 7, listed as rGLP-1): restored | myocardial sympathetic activity ([2]; infusion compared to saline, FIG. 6): suppression | Glucose myocardial uptake ([3]; 24 hrs of infusion): 8.72 ± 1.05 µmol/min | Lactate myocardial uptake ([3]; 24 hrs of infusion): 3.61 ± 0.62 µmol/min | NE (transmyocardial norepinephrine uptake) ([3]; 24 hrs of infusion): 26.3 ± 3.1 pmol/min | NEFA myocardial uptake ([3]; 24 hrs of infusion): 4.53 ± 0.58 µmol/min | Glucose myocardial uptake ([3]; 48 hrs of infusion): 7.00 ± 0.94 µmol/min | Lactate myocardial uptake ([3]; 48 hrs of infusion): 4.04 ± 0.74 µmol/min | NE (transmyocardial norepinephrine uptake) ([3]; 48 hrs of infusion): 30.5 ± 4.9 pmol/min | NEFA myocardial uptake ([3]; 48 hrs of infusion): 5.16 ± 0.73 µmol/min | Insulin/Glucagon ([3]; 48 hrs of infusion): 3.12 ± 0.24 | Glucose myocardial uptake [3, 10]: 6.67 ± 1.22 µmol/min | Lactate myocardial uptake [3, 10]: 4.78 ± 1.04 µmol/min | NE (transmyocardial norepinephrine uptake) [3, 10]: 30.9 ± 4.8 pmol/min | NEFA myocardial uptake [3, 10]: 5.23 ± 0.83 µmol/min | Insulin/Glucagon ([3]; Baseline): 1.36 ± 0.21 | Glucose myocardial uptake ([3]; CHF (before infusion)): 3.44 ± 0.81 µmol/min | Lactate myocardial uptake ([3]; CHF (before infusion)): 2.64 ± 0.91 µmol/min | NE (transmyocardial norepinephrine uptake) ([3]; CHF (before infusion)): 18.7 ± 3.6 pmol/min | NEFA myocardial uptake ([3]; CHF (before infusion)): 3.17 ± 0.61 µmol/min | Insulin/Glucagon ([3]; CHF (before infusion)): 1.79 ± 0.29 | plasma glucagon levels ([3]; advanced DCM): effective in reducing | myocardial glucose uptake [3, 11]: enhanced | ratio of insulin (pmol/L) to glucagon (pg/ml) [3, 11]: significant increase | plasma insulin levels ([3]; setting of euglycemia): little effect | left ventricular hemodynamics ([4]; 1.5 pmol/kg/min i.v. 72 hours after PCI, vs standard care, FIG. 8): overall improvement | left ventricular function ([4]; patients with large myocardial infarctions, 1.5 pmol/kg/min i.v. 72 hours): improvement | plasma insulin levels ([5]; hyperglycemia-only control 47): ~333 μU/ml | plasma insulin levels [5, 12]: ~2000 pmol/L | incretin potency comparison ([5]; insulinotropic action during hyperglycemia): more potent than GIP | insulinotropic action [5]: insulinotropic | cAMP (rat cardiomyocytes): increases | myocyte contractility (rat cardiomyocytes): no effect

exendin-4 [excendin 4]
blood pressure (restrained rats): hypertension | heart rate (restrained rats): tachycardia

glucose-dependent insulinotropic polypeptide [GIP]
plasma insulin levels ([5]; hyperglycemia-only control 47): ~150 μU/ml | plasma insulin levels [5, 12]: ~900 pmol/L | insulinotropic action [5]: not | increase of B-cell sensitivity to second-generation sulfonylurea [6]: 2 fold
